# “And” between values parts separate entries of the source, which are not always exact repeats. Equal entries are not always repeated. Where a SMILES comes first, the peptide text is derived from it. [ ]: non-standard residue; d: D form. Hyp = O=C(O)[C@@H]1C[C@@H](O)CN1
# Tests used:
# IL-8 = assay: Example 9 Luminex, LPS hPBMCs: IL-8; type: cell-based, human
# Protocol: (§1) Treatment Human PBMCs were pretreated with YY-101, YDE-011 and YDE-043 or reference compound; Xiidra® at various concentration (ranging from 1 nM to 100 uM) for 2 h before stimulation. An equal volume of 0.5% DMSO was used as a vehicle control. Then, the cells were treated with LPS at 5 ug/ml. The supernatants from treated cells were harvested at 24 h and placed in a 96 well for Luminex cytokine & chemokine profiling using a Luminex 200 multiplex assay (Luminex; R&D system, USA).
# (§2) The main study arm with triplicate wells per group in a 24-well plate: • 1. Blank • 2. PBMC: 0.5% DMSO • 3. PBMC+LPS (5 ug/ml) • 4. PBMC+YY-101 100 uM • 5. PBMC+YY-101 10 uM • 6. PBMC+YY-101 1 uM • 7. PBMC+YY-101 0.1 uM • 8. PBMC+YY-101 0.01 uM • 9. PBMC+LPS (5 ug/ml)+Xiidra®100 uM • 10. PBMC+LPS (5 ug/ml)+Xiidra® 10 uM • 11. PBMC+LPS (5 ug/ml)+Xiidra® 1 uM • 12. PBMC+LPS (5 ug/ml)+Xiidra®0.1 uM • 13. PBMC+LPS (5 ug/ml)+Xiidra®0.01 uM • 14. PBMC+LPS (5 ug/ml)+Xiidra®0.001 uM • 15. PBMC+LPS (5 ug/ml)+YY-101 100 uM • 16. PBMC+LPS (5 ug/ml)+YY-101 10 uM • 17. PBMC+LPS (5 ug/ml)+YY-101 1 uM • 18. PBMC+LPS (5 ug/ml)+YY-101 0.1 uM • 19. PBMC+LPS (5 ug/ml)+YY-101 0.01 uM • 20. PBMC+LPS (5 ug/ml)+YY-101 0.001 uM • 21. PBMC+LPS (5 ug/ml)+YDE-011 100 uM • 22. PBMC+LPS (5 ug/ml)+YDE-011 10 uM • 23. PBMC+LPS (5 ug/ml)+YDE-011 1 uM • 24. PBMC+LPS (5 ug/ml)+YDE-011 0.1 uM • 25. PBMC+LPS (5 ug/ml)+YDE-011 0.01 uM • 26. PBMC+LPS (5 ug/ml)+YDE-011 0.001 uM • 27. PBMC+LPS (5 ug/ml)+YDE-043 100 uM • 28. PBMC+LPS (5 ug/ml)+YDE-043 10 uM • 29. PBMC+LPS (5 ug/ml)+YDE-043 1 uM • 30. PBMC+LPS (5 ug/ml)+YDE-043 0.1 uM • 31. PBMC+LPS (5 ug/ml)+YDE-043 0.01 uM • 32. PBMC+LPS (5 ug/ml)+YDE-043 0.001 uM
# (§3) Multiplex assay was used to measure 30 cytokines and chemokines. The 1:2, 1:10 and 1:200 diluted cell supernatant and serial dilution of the standard were dispensed into a 96 well plate at 50 ul/well. Then, the pre-mixed cocktail of antibody-coated magnetic beads was dispensed at 50 ul/well and incubated at room temperature for 2 h in a horizontal orbital microplate shaker at 800±500 rpm. The beads were washed using a magnetic device to prevent loss. The biotin-antibody was dispensed in 50 ul of each well and incubated at room temperature for 1 h in a shaker at 800±500 rpm. After washing, streptavidin-PE was added at 50 ul/well and incubated at room temperature for 30 min in a shaker under the same conditions. Finally, after washing, wash buffer (100 ul/well) was added to the plate and incubated in a shaker for 2 min. The Luminex™ 200 setting were set according to the manufacturer's protocol. The data was calculated with a standard five-parameter logistic nonlinear regression analysis of the data (xPonent software 4.2, USA). The levels of cytokine/chemokine are normalized to the live cell counts (1×10^5 cells/mL) and presented as concentrations per mL (pg/mL or ng/mL).
# VEGF-A = assay: Example 9 Luminex, LPS hPBMCs: VEGF-A; type: cell-based, human; details: for conc/live cell / Concentration: Bead VEGF-A; for Concentration: dilution 2.0
# Protocol: as §1, §2, §3
# [1] = PBMC + LPS(5 ug/ml) + test article 0.001 uM, Mean
# [2] = PBMC + LPS(5 ug/ml) + test article 0.001 uM, single replicates (1st, 2nd, 3rd)
# [3] = PBMC + LPS(5 ug/ml) + test article 0.01 uM, Mean
# [4] = PBMC + LPS(5 ug/ml) + test article 0.01 uM, single replicates (1st, 2nd, 3rd)
# [5] = PBMC + LPS(5 ug/ml) + test article 0.1 uM, Mean
# [6] = PBMC + LPS(5 ug/ml) + test article 0.1 uM, single replicates (1st, 2nd, 3rd)
# [7] = PBMC + LPS(5 ug/ml) + test article 1 uM, Mean
# [8] = PBMC + LPS(5 ug/ml) + test article 1 uM, single replicates (1st, 2nd, 3rd)
# [9] = PBMC + LPS(5 ug/ml) + test article 10 uM, Mean
# [10] = PBMC + LPS(5 ug/ml) + test article 10 uM, single replicates (1st, 2nd, 3rd)
# [11] = PBMC + LPS(5 ug/ml) + test article 100 uM, Mean
# [12] = PBMC + LPS(5 ug/ml) + test article 100 uM, single replicates (1st, 2nd, 3rd)
# [13] = PBMC + LPS(5 ug/ml) + test article 1 uM, single replicates
# [14] = PBMC + LPS(5 ug/ml) + test article 10 uM, single replicates
# [15] = PBMC + LPS(5 ug/ml) + test article 0.001 uM, single replicates
# [16] = PBMC + LPS(5 ug/ml) + test article 0.01 uM, single replicates
# [17] = PBMC + LPS(5 ug/ml) + test article 0.1 uM, single replicates
structure (smiles),measurement,setting,value
CC(C)C[C@H](NC(=O)CNC(=O)[C@H](CC(C)C)NC(=O)[C@H](CCC(N)=O)NC(=O)CNC(=O)[C@@H]1C[C@@H](O)CN1)C(=O)N[C@@H](C)C(=O)NCC(=O)N1CCC[C@H]1C(=O)N[C@@H](CCCCN)C(=O)O [YDE-011] (H-[Hyp]GQLGLAGPK-OH),Concentration,IL-8; [1],26175.1 pg/mL
same,conc/live cell,IL-8; [1],4943.8 pg/10^5
same,Concentration,IL-8; [2],25949.1 pg/mL and 25243.2 pg/mL and 27333.0 pg/mL
same,conc/live cell,IL-8; [2],5766.5 pg/10^5 and 4352.3 pg/10^5 and 4712.6 pg/10^5
same,Concentration,IL-8; [3],27857.4 pg/mL
same,conc/live cell,IL-8; [3],4784.6 pg/10^5
same,Concentration,IL-8; [4],29106.4 pg/mL and 27148.3 pg/mL and 27317.6 pg/mL
same,conc/live cell,IL-8; [4],4694.6 pg/10^5 and 5323.2 pg/10^5 and 4336.1 pg/10^5
same,Concentration,IL-8; [5],25867.3 pg/mL
same,conc/live cell,IL-8; [5],4548.1 pg/10^5
same,Concentration,IL-8; [6],25672.8 pg/mL and 26225.6 pg/mL and 25703.5 pg/mL
same,conc/live cell,IL-8; [6],3889.8 pg/10^5 and 5245.1 pg/10^5 and 4509.4 pg/10^5
same,Concentration,IL-8; [7],25627.6 pg/mL
same,conc/live cell,IL-8; [7],5106.9 pg/10^5
same,Concentration,IL-8; [8],26271.7 pg/mL and 26379.3 pg/mL and 24231.7 pg/mL
same,conc/live cell,IL-8; [8],4776.7 pg/10^5 and 5495.7 pg/10^5 and 5048.3 pg/10^5
same,Concentration,IL-8; [9],25105.4 pg/mL
same,conc/live cell,IL-8; [9],4765.2 pg/10^5
same,Concentration,IL-8; [10],25626.7 pg/mL and 25335.2 pg/mL and 24354.2 pg/mL
same,conc/live cell,IL-8; [10],4745.7 pg/10^5 and 4368.1 pg/10^5 and 5181.8 pg/10^5
same,Concentration,IL-8; [11],26038.5 pg/mL
same,conc/live cell,IL-8; [11],4290.3 pg/10^5
same,Concentration,IL-8; [12],27702.6 pg/mL and 26563.8 pg/mL and 23849.1 pg/mL
same,conc/live cell,IL-8; [12],4541.4 pg/10^5 and 4354.7 pg/10^5 and 3974.8 pg/10^5
same,conc/live cell,VEGF-A; [7],0.3 pg/10^5
same,Concentration,VEGF-A; [7],2.8 pg/mL
same,Concentration,VEGF-A; [13],0.6 pg/mL
same,conc/live cell,VEGF-A; [13],0.0 pg/10^5 and 0.1 pg/10^5
same,conc/live cell,VEGF-A; [9],0.3 pg/10^5
same,Concentration,VEGF-A; [9],2.1 pg/mL
same,Concentration,VEGF-A; [14],3.6 pg/mL and 0.6 pg/mL
same,conc/live cell,VEGF-A; [14],0.7 pg/10^5 and 0.0 pg/10^5 and 0.1 pg/10^5
same,conc/live cell,VEGF-A; [11],0.0 pg/10^5
same,conc/live cell,"VEGF-A; PBMC + LPS(5 ug/ml) + test article 100 uM, single replicates",0.0 pg/10^5
same,"Concentration, Bead name: VEGF-A",VEGF-A; [1],4.3 pg/mL
same,"MFI, Bead name: VEGF-A",VEGF-A; [1],−0.4
same,"conc/live cell, Bead name: VEGF-A",VEGF-A; [1],0.8 pg/10^5
same,"Concentration, Bead name: VEGF-A",VEGF-A; [15],6.1 pg/ml (2×) and 0.6 pg/ml
same,"MFI, Bead name: VEGF-A",VEGF-A; [15],0.3 (2×) and −1.8
same,"conc/live cell, Bead name: VEGF-A",VEGF-A; [15],1.4 pg/10^5 and 0.1 pg/10^5 and 1.1 pg/10^5
same,"Concentration, Bead name: VEGF-A",VEGF-A; [3],2.8 pg/mL
same,"MFI, Bead name: VEGF-A",VEGF-A; [3],−1.6
same,"conc/live cell, Bead name: VEGF-A",VEGF-A; [3],0.3 pg/10^5
same,"Concentration, Bead name: VEGF-A",VEGF-A; [16],4.9 pg/mL and 0.6 pg/mL
same,"MFI, Bead name: VEGF-A",VEGF-A; [16],−0.3 and −2.8 and −1.8
same,"conc/live cell, Bead name: VEGF-A",VEGF-A; [16],0.8 pg/10^5 and 0.0 pg/10^5 and 0.1 pg/10^5
same,"Concentration, Bead name: VEGF-A",VEGF-A; [5],0.6 pg/mL
same,"MFI, Bead name: VEGF-A",VEGF-A; [5],−2.1
same,"conc/live cell, Bead name: VEGF-A",VEGF-A; [5],0.1 pg/10^5
same,"Concentration, Bead name: VEGF-A",VEGF-A; [17],0.6 pg/mL
same,"MFI, Bead name: VEGF-A",VEGF-A; [17],−1.8 (2×) and −2.8
same,"conc/live cell, Bead name: VEGF-A",VEGF-A; [17],0.1 pg/10^5 (2×) and 0.0 pg/10^5
same,"Concentration, Bead name: VEGF-A",VEGF-A; [13],4.9 pg/mL
same,"MFI, Bead name: VEGF-A",VEGF-A; [13],−0.3
same,"conc/live cell, Bead name: VEGF-A",VEGF-A; [13],0.9 pg/10^5

# — patent publication US20230146455A1, “TREATMENT OF INFLAMMATORY DISEASES WITH PEPTIDES AND PHARMACEUTICAL COMPOSITIONS” (Yuyu Pharma, Inc., priority 2020, published 2023)
